Measured values: ChEMBL document CHEMBL1201862, “PubChem BioAssay data set” (2004)
Active and inactive are the calls of the source.

Experiments:
[1] = biological target: T1, Polyadenylate-binding protein 1 (Homo sapiens, UniProt P11940); assay: PABP1 MLLE–PAM2 interaction inhibitors, dose response, miRNA deadenylation inhibitor project, biochemical, fluorescence polarization, Cy5-PAM2 peptide, secondary (AID 602260); assay type: functional; settings: read-out: IC50_Mean
[2] = biological target: T1, Polyadenylate-binding protein 1; assay: PABP1 MLLE–PAM2 binding inhibitor potency, dose response, biochemical, fluorescence polarization, FITC-PAM2 peptide (AID 602259); assay type: functional; settings: read-out: IC50_Mean
[3] = biological target: T2, Heat shock factor protein 1 (Mus musculus, UniProt P38532); assay: HSF1 potentiators in luciferase reporter cells, confirmation, cell-based, NIH3T3, luminescence, dose retest (AID 435004); assay type: functional;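 also: stress induced by proteasome inhibitor MG132 added 30 min after compound; luciferase reporter driven by HSF1 response element in NIH3T3 cells; actives raise luminescence as potentiators of the MG132 stress response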
T2 sequence (P38532 whole entry): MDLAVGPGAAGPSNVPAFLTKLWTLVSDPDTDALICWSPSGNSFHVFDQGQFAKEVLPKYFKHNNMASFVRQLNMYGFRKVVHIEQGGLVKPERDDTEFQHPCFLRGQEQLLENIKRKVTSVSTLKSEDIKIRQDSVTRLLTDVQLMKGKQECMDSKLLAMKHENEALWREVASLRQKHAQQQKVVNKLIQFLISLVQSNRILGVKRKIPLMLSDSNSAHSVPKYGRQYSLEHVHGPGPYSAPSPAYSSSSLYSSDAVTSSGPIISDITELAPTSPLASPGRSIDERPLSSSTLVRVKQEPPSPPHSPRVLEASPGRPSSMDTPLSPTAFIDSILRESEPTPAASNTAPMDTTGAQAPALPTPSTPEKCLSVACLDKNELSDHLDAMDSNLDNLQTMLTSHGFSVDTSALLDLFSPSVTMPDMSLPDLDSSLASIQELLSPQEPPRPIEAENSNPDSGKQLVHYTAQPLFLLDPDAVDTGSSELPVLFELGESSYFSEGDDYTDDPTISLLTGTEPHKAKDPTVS

[4] = cells; assay type: functional
[5] = NIH-3T3 fibroblast cytotoxicity, dose response, cytotoxicity control, cell-based, fluorescence, Alamar Blue, secondary assay (AID 2327); assay type: functional;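 also: NIH-3T3 mouse fibroblasts cultured with fluconazole at 8 µg/mL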
[6] = Luminescence Cell-Based Dose Retest to Confirm Inhibitors of Cancer Stem Cells. [Related pubchem assays (depositor defined):AID2717, AID2721]; assay type: functional; settings: Homo sapiens
[7] = C. albicans growth with fluconazole, confirmation, fluorescence, retest (AID 2467); assay type: functional, cell-based
[8] = microbe, parasite or virus in culture; assay type: functional; settings: Mycobacterium tuberculosis
[9] = biological target: Large T antigen (Simian virus 40, UniProt P03070); assay type: functional, Betapolyomavirus macacae;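 also: Confirmatory-stage PubChem screen for compounds that inhibit SV40 T antigen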
Large T antigen, sequence (P03070 whole entry): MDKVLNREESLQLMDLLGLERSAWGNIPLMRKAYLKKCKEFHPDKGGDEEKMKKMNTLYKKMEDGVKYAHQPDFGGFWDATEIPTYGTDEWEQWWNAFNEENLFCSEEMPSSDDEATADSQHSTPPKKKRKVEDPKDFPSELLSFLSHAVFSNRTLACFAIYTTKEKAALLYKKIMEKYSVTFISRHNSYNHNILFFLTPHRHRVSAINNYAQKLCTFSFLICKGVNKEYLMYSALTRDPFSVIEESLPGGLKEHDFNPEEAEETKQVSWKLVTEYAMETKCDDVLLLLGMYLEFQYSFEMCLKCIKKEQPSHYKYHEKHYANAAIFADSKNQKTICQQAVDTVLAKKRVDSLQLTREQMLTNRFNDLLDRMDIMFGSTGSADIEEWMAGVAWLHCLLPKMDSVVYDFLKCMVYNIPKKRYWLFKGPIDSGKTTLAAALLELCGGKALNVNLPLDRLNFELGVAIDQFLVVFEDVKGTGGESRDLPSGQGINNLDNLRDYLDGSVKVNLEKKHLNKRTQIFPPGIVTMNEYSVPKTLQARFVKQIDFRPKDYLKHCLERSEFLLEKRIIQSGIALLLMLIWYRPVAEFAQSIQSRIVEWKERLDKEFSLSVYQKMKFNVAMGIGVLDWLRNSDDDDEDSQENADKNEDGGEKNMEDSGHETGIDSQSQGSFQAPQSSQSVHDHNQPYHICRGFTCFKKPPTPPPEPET

[10] = biological target: T3, Rac GTPase-activating protein 1 (Homo sapiens, UniProt Q9H0H5); assay: MgcRacGAP GTPase-activating activity inhibitors, confirmation, biochemical, ADP Hunter fluorescence, primary and confirmatory (AID 624330); assay type: functional
T3 sequence (Q9H0H5 whole entry): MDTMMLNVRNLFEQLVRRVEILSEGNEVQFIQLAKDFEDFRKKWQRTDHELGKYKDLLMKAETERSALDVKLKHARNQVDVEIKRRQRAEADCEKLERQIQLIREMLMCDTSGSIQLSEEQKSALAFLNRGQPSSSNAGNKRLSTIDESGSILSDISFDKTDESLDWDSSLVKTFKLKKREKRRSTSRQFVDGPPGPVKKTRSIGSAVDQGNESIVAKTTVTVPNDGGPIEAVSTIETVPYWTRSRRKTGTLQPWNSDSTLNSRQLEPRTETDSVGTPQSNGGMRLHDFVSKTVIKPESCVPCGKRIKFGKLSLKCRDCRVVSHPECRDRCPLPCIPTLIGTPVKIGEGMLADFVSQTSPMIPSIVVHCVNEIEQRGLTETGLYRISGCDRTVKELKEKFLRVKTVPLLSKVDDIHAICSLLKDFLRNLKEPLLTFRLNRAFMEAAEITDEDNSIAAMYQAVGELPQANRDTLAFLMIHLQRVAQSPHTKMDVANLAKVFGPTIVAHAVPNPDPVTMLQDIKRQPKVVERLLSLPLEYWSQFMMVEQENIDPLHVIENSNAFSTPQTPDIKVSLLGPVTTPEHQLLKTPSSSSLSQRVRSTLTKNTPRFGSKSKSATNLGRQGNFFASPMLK

[11] = biological target: T4, Ubiquitin-conjugating enzyme E2 N (Homo sapiens, UniProt P61088); assay type: functional;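 also: Dose-response confirmation in a TR-FRET assay detecting UBC13-driven polyubiquitin chain formation, inhibition measured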
T4 sequence (P61088 whole entry): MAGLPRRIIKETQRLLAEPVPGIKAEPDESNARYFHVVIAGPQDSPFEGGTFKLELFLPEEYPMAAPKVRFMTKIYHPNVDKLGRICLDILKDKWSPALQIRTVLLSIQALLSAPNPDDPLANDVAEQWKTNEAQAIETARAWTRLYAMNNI

[12] = biological target: Cytochrome P450 2D6 (Homo sapiens, UniProt P10635);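 also: CYP2D6 member of a cytochrome P450 panel assay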
Cytochrome P450 2D6, sequence (P10635 whole entry): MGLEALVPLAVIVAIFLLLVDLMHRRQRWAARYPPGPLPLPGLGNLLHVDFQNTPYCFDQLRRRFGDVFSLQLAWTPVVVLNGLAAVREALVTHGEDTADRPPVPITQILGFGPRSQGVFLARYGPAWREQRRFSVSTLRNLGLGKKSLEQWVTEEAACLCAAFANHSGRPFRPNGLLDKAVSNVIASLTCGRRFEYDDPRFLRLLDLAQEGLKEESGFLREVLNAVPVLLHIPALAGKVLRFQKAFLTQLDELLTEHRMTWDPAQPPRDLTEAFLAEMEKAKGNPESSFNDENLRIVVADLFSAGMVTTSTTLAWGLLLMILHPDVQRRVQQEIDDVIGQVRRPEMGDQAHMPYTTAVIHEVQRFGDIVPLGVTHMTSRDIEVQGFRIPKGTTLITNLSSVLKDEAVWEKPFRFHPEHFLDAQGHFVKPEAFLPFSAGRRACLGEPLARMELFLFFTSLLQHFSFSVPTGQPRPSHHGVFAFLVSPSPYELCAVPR

[13] = test system: H4; assay: Luminescence Cell-Based Dose Response HTS to Identify Activators of 5'UTR Stem-Loop Driven Prion Protein mRNA Translation in H4 Neuroglioblastoma Cells. [Related pubchem assays: 1829 (Project Summary), 1814 (Primary HTS)]; assay type: functional; settings: Homo sapiens
[14] = Luminescence Cell-Based Dose Response HTS to Identify Activators of Luciferase Translation or Activity in H4 […] Cells. [Related pubchem assays: 1829 (Project Summary), 1814 (Primary HTS)]; assay type: functional
[15] = Luminescence Cell-Based Dose Confirmation HTS to Identify Activators of 5'UTR Stem-Loop Driven Alpha-Synuclein mRNA Translation in H4 Neuroglioblastoma Cells. [Related pubchem assays: 1829 (Project Summary), 1814 (Primary HTS)]; assay type: functional
[16] = Luminescence Cell-Based Dose Response HTS to Identify Inhibitors of 5'UTR Stem-Loop Driven Prion Protein mRNA Translation in H4 Neuroglioblastoma Cells. [Related pubchem assays: 1827 (Project Summary), 1813 (Primary HTS)]; assay type: functional
[17] = inhibitors of firefly luciferase expression or activity, dose response, H4 neuroglioma cells, luminescence (AID 1990); assay type: functional, cell-based
[18] = inhibitors of SNCA 5'UTR-driven reporter translation, confirmation, H4 neuroglioma cells, luminescence (AID 1988); assay type: functional, cell-based
[19] = P. falciparum Dd2 growth inhibitors, dose response, SYBR Green, cherry-picked samples (AID 1159567); assay type: functional, cell-based
[20] = control 3'UTR Renilla luciferase suppression, dose response, counter-screen for Shn3 inhibitor project, cell-based, Clone20-Shn3RL, cherry-picked (AID 624133); assay type: functional
[21] = Shn3 3'UTR reporter inhibitors, dose response, cell-based, Clone20 osteoblasts, firefly luciferase, cherry-picked (AID 624132); assay type: functional;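 also: firefly luciferase luminescence from reporter carrying the Shn3 3'UTR in osteoblasts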
[22] = test system: Streptococcus sp. 'group A'; assay: growth inhibition of control SK(-) GAS strain, dose response, counter-screen for streptokinase expression inhibitor project, luminescence, kanamycin, BacTiterGlo, confirmation (AID 1900); assay type: functional, organism-based
[23] = biological target: T5, Streptokinase A (Streptococcus pyogenes serotype M1, UniProt P10520); assay: S. pyogenes streptokinase expression inhibitors, potency, dose response, plasminogen activation absorbance, OD405 (AID 1914); assay type: functional, Streptococcus pyogenes M1 GAS;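 also: secreted streptokinase activity via plasminogen activation per viability signal from cell pellet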
T5 sequence (P10520 whole entry): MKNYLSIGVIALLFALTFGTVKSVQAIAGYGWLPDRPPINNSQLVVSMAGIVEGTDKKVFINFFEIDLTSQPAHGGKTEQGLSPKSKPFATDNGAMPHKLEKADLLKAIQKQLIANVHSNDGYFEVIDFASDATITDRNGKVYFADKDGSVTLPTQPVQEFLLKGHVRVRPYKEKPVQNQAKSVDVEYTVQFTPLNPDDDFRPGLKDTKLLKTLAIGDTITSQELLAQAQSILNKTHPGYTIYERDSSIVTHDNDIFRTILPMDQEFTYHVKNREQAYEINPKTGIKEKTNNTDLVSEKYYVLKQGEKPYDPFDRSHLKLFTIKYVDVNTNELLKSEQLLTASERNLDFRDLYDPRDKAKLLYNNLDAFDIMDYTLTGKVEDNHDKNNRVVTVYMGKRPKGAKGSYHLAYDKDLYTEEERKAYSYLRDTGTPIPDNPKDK

[24] = test system: Streptococcus; assay: Group A Streptococcus viability loss, dose response, counter-screen for streptokinase expression inhibitor project, luminescence, BacTiterGlo (AID 1915); assay type: functional, organism-based;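 also: potency for reduction of bacterial viability or growth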

T1 sequence (P11940 whole entry): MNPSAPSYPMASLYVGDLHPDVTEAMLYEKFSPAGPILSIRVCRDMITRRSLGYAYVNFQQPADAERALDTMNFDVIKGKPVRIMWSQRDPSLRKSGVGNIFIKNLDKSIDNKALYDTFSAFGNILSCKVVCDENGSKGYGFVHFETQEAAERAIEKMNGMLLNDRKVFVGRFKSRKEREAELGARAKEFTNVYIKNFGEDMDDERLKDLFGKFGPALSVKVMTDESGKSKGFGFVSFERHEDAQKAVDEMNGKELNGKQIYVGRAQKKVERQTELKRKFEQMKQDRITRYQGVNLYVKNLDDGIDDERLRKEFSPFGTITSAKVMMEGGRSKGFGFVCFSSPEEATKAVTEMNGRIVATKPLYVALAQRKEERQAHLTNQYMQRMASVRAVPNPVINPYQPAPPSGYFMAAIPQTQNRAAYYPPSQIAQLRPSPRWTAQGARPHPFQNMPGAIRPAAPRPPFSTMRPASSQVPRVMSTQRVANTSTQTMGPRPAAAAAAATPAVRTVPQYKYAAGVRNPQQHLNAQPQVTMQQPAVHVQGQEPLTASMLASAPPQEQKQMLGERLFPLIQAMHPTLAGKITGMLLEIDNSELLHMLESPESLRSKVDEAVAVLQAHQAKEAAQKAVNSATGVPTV

O=C(O)c1ccccc1SC1CC(=O)N(c2cccc3ccccc23)C1=O (stereo not given)
IC50 [1]: > 66 µM (inactive)
IC50 [2]: > 66 µM (inactive)

Cc1ccccc1-n1nnc2c(=O)oc3ccccc3c21
EC50 [3]: > 260 µM (inactive)
IC50 [4]: 1.13 µM (active)

Cc1cc(C(=O)NNc2ccc(Cl)cc2)no1
EC50 [5]: 2.59 µM (active)
AC50 [6]: 1.35 µM (active)
EC50 [7]: 0.819 µM (active)

COc1ccc(Cl)cc1C(=O)O/N=C(\N)c1ccccn1
CC50 [8]: > 40 µM (active)

CN1C(=O)C2C(c3ccc(N(C)C)cc3)=NN(Cc3ccccc3)C2C1=O (stereo not given)
IC50 [9]: 19 µM (active)
IC50 [10]: 43 µM (active)
EC50 [3]: 40.3 µM (active)

NC(=O)CN(c1ccccc1)C1SC(=O)N(Cc2ccccc2)C1=O (stereo not given)
IC50 [1]: > 66 µM (inactive)
IC50 [2]: > 66 µM (inactive)

CCCCN1C(=N)N([C@@H](CCC)CN2CCC[C@H]2CN2C(N)=NC[C@H]2CC(C)C)C[C@H]1Cc1ccccc1
IC50 [11]: > 20 µM (inactive)

COc1cc(/C=C2/SC(Nc3ccc(O)cc3)=NC2=O)cc(OC)c1O
IC50 [11]: > 20 µM (inactive)

CC(=O)c1cn(S(=O)(=O)c2ccccc2)c2ccccc12
IC50 [11]: > 20 µM (inactive)

COc1ccc(S(=O)(=O)N[C@@H](Cc2ccccc2)C(=O)N2CC[C@@]3(O)CCCC[C@H]3C2)cc1
EC50 [3]: > 260 µM (inactive)

O[C@@H](c1cc(C(F)(F)F)nc2c(C(F)(F)F)cccc12)[C@H]1CCCCN1
CC50 [8]: 13.5 µM (active)
IC50 [11]: > 20 µM (inactive)

CCCCn1c(SCC(=O)Nc2cccc(OC)c2)nc2ccc(N3CCOCC3)cc2c1=O
EC50 [5]: 141 µM (active)
EC50 [7]: > 38 µM (not active)

CC(=O)NCCc1nc2ccccc2n1CCOc1cccc(C)c1
EC50 [3]: > 260 µM (inactive)

COc1ccc(C)cc1N=C(S)NNC(=O)c1c(Br)cnn1C
EC50 [5]: > 150 µM (inactive)
EC50 [7]: 1.45 µM (active)

CCCCOc1ccc(CNn2c(C)nc3ccccc3c2=O)cc1
IC50 [11]: > 20 µM (inactive)
AC50 [12]: 7.94 µM (inconclusive)

CC1(C)SC(=S)N(NC(=O)Nc2cccc3ccccc23)C1N(O)C(=O)Nc1ccccc1 (stereo not given)
EC50 [13]: > 120 µM (not active)
CC50 [8]: 36.3 µM (active)
EC50 [14]: > 60 µM (not active)
EC50 [15]: > 120 µM (not active)

CCCOC(c1ccccc1)(c1ccc(C(F)(F)F)cc1)C(Oc1nc(C)cc(C)n1)C(=O)O (stereo not given)
EC50 [5]: > 160 µM (inactive)
EC50 [16]: 11.4 µM (active)
EC50 [17]: 12.4 µM (active)
EC50 [18]: 8.08 µM (active)
EC50 [7]: 1.91 µM (active)

O=C(NC(=S)Nc1cccnc1)c1cc2ccccc2o1
IC50 [1]: > 66 µM (inactive)
IC50 [2]: > 66 µM (inactive)

O=C(CSc1nccn(-c2ccc(Br)cc2)c1=O)NC1CCCC1
IC50 [1]: > 66 µM (inactive)
IC50 [2]: > 66 µM (inactive)

CN(C)CC#Cc1ccc([C@H]2[C@H](CO)N3CCCCN(C(=O)CN(C)C)C[C@@H]23)cc1
AC50 [19]: 9.36 µM (active)

O=C(Nc1cccc(Cl)c1)C1CCCN(S(=O)(=O)c2ccc(F)cc2)C1 (stereo not given)
EC50 [3]: > 260 µM (inactive)

Cc1ccn2c(NC3CCCCC3)c(-c3cccc(-c4cccc(Cl)c4)c3)nc2c1
AC50 [6]: 2.85 µM (active)
CC50 [8]: > 40 µM (active)

COc1cc(/C=N/NC(=O)CC2C(=O)NN=C2C)ccc1O (stereo not given)
IC50 [9]: 11.5 µM (active)
IC50 [10]: 53.7 µM (active)

Cc1c(NC(=O)C(C)N2CC(C)OC(C)C2)c(=O)n(-c2ccccc2)n1C (stereo not given)
EC50 [3]: > 260 µM (inactive)

COCCSc1nnc(NC(=O)C2CC(=O)N(c3ccc(C)cc3)C2)s1 (stereo not given)
EC50 [5]: > 160 µM (inactive)
EC50 [7]: > 38 µM (not active)

CC(C)NS(=O)(=O)c1ccc(NC(=S)NC(=O)c2cccc([N+](=O)[O-])c2)cc1
IC50 [1]: > 66 µM (inactive)
IC50 [2]: > 66 µM (inactive)

CCC(=O)N1CCN(c2ccc(NC(=S)NC(=O)c3cccc([N+](=O)[O-])c3)cc2)CC1
IC50 [1]: > 66 µM (inactive)
IC50 [2]: > 66 µM (inactive)

Cc1c(C(=O)N(Cc2cccc(Br)c2)C2CCS(=O)(=O)C2)oc2ccccc12 (stereo not given)
AC50 [20]: > 70 µM (inactive)
AC50 [21]: 35.9 µM (active)

CCOC(=O)c1[nH]c2ccc(F)cc2c1NC(=O)c1ccccc1C(=O)O
EC50 [5]: > 150 µM (inconclusive)
EC50 [22]: > 150 µM (not active)
EC50 [23]: > 150 µM (not active)
EC50 [7]: > 38 µM (not active)
EC50 [24]: > 150 µM (not active)

COc1ccc2c3n(nc2c1)CCN=C3c1cc(Cl)c(N)c(Cl)c1
CC50 [8]: 35.5 µM (active)
